Test results taken from patent US11840686B2, “Modulation of prekallikrein (PKK) expression” (Ionis Pharmaceuticals, Inc., priority 2013, dated 2023).
Strand notation (5' to 3'): a small letter for the sugar, then the base; units joined by * are phosphorothioate-linked, units joined directly phosphodiester-linked; [ ] holds rarer units or linkages, { } end groups; capitals alone tell only the bases. e = 2'-O-(2-methoxyethyl) (MOE); [5mC] = 5-methylcytosine; d = 2'-deoxy (DNA)

Test system: human PKK mRNA
Experiment: Antisense inhibition of human PKK mRNA in HepaRG cells, 5,000 nM (Example 2)
Assay type: cell-based
Summary of the method: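 Percent inhibition of PKK mRNA is reported relative to untreated cells, after adjustment for total RNA by RIBOGREEN. Gapmers of 16–20 nucleosides with 2′-MOE wings were delivered at 5,000 nM by electroporation into HepaRG cells and left for roughly 24 hours before RNA isolation.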

[1] = Table 9 experiment, HepaRG cells, 20,000 cells per well, electroporation with 5,000 nM antisense oligonucleotide, approx. 24 hours, PKK mRNA by RT-PCR (RTS3454), relative to untreated control cells
[2] = Table 10 experiment, HepaRG cells, 20,000 cells per well, electroporation with 5,000 nM antisense oligonucleotide, approx. 24 hours, PKK mRNA by RT-PCR (RTS3454), relative to untreated control cells
[3] = human PKK mRNA in HepaRG cells, 5-10-5 gapmers, Table 14
[4] = Table 13, human PKK mRNA in HepaRG cells, 5-10-5 gapmers
[5] = human PKK mRNA, HepaRG cells, 5-10-5 motif oligonucleotides targeting SEQ ID NO: 1 and 10
[6] = HepaRG cells, electroporation, 5,000 nM antisense oligonucleotide, approx. 24 hours, primer probe set RTS3454, relative to untreated control cells, Table 11
[7] = HepaRG cells, 5,000 nM antisense oligonucleotide, 5-10-5 gapmers, Table 16

In the case of “546336 (antisense eT*e[5mC]*eA*eT*eT*dT*dG*dT*dT*dA*d[5mC]*d[5mC]*dA*dA*dA*eG*eG*eA*eA*eT) [compound 546336]”, the “% inhibition” value [1] is reported as 66% and the “% inhibition” value [2] is reported as 73%.

“547588 (eA*e[5mC]*eT*eA*eT*dA*dA*d[5mC]*dA*dG*dT*dA*dT*d[5mC]*dA*e[5mC]*eT*eG*eT*e[5mC]; antisense) [compound 547588]” was tested, and the “% inhibition” value [3] was 83%.

For “546875 (eA*e[5mC]*eT*eA*eT*dA*dA*d[5mC]*dA*dA*dT*dA*dT*d[5mC]*dA*e[5mC]*eT*eG*eT*eA; antisense) [compound 546875]”, the “% inhibition” value [3] was 33%.

For “546323 (antisense eG*eT*eG*e[5mC]*eT*dT*dG*dT*dG*dT*d[5mC]*dA*d[5mC]*d[5mC]*dT*eT*eT*eG*eG*eA) [compound 546323]”, the “% inhibition” value [1] was 94% and the “% inhibition” value [2] was 80%.

“548782 (antisense eT*eA*e[5mC]*e[5mC]*dT*dA*dT*dA*dA*d[5mC]*dT*dA*dT*eA*eA*e[5mC]*eA) [compound 548782]” was tested, and the “% inhibition” value (human PKK mRNA, HepaRG cells, 5,000 nM antisense oligonucleotide, Table 18) was 0%.

In the case of “546763 (eG*e[5mC]*eT*eT*e[5mC]*d[5mC]*d[5mC]*d[5mC]*dA*dA*dT*dA*d[5mC]*dT*dT*eG*e[5mC]*eT*eG*eG; antisense) [compound 546763]”, the “% inhibition” value [4] is reported as 84%.

“547634 (antisense eA*eT*e[5mC]*eA*e[5mC]*dT*dG*dT*dA*d[5mC]*dT*dA*dG*dT*dT*eT*eT*e[5mC]*eT*eA) [compound 547634]” was tested, and the “% inhibition” value [5] was 72%.

With “546907 (eA*eT*eA*eA*e[5mC]*dT*dA*dT*dA*dA*d[5mC]*dA*dG*dT*dA*eT*e[5mC]*eA*e[5mC]*e[5mC]; antisense) [compound 546907]” the “% inhibition” value [5] was 37%.

For “546356 (antisense eT*e[5mC]*e[5mC]*eA*eG*dT*d[5mC]*d[5mC]*dA*dT*dG*dT*dA*d[5mC]*dT*e[5mC]*eA*eG*e[5mC]*eG) [compound 546356]”, the “% inhibition” value [6] was 60%.

For “547713 (antisense e[5mC]*eT*e[5mC]*eA*eA*dT*dG*d[5mC]*d[5mC]*dA*d[5mC]*d[5mC]*d[5mC]*dT*dT*eT*e[5mC]*e[5mC]*e[5mC]*e[5mC]) [compound 547713]”, the “% inhibition” value [7] was 37%.

With “547505 (antisense eG*eA*e[5mC]*eT*eT*dG*dA*dA*d[5mC]*dT*d[5mC]*dA*dG*dG*dT*eT*eG*eT*eA*eA) [compound 547505]” the “% inhibition” value [6] was 69%.

For “546931 (eG*e[5mC]*e[5mC]*e[5mC]*e[5mC]*d[5mC]*dG*dG*dA*dG*d[5mC]*dA*d[5mC]*d[5mC]*dT*eT*e[5mC]*eA*e[5mC]*eT; antisense) [compound 546931]”, the “% inhibition” value [7] was 58%.

“547673 (eG*eA*eA*eT*eA*dT*d[5mC]*dA*d[5mC]*dT*dG*dT*d[5mC]*d[5mC]*dT*eA*eT*eA*eA*e[5mC]; antisense) [compound 547673]” was tested, and the “% inhibition” value [5] was 21%.

“547280 (antisense eG*eA*eA*eA*eA*d[5mC]*dA*d[5mC]*dA*dA*dT*dT*dG*d[5mC]*dT*eT*e[5mC]*eT*eT*eG) [compound 547280]” was tested, and the “% inhibition” value (HepaRG cells, electroporation with 5,000 nM antisense oligonucleotide, approximately 24 hours, PKK mRNA by RT-PCR (RTS3454), relative to untreated control cells, Table 5 experiment) was 47%.

“547676 (antisense e[5mC]*eT*eG*eT*e[5mC]*d[5mC]*dT*dA*dT*dA*dA*d[5mC]*dT*dA*dT*eA*eA*e[5mC]*eA*eA) [compound 547676]” was tested, and the “% inhibition” value [5] was 41%.

For “547570 (eA*eA*eG*e[5mC]*e[5mC]*d[5mC]*dT*dG*dT*dT*dT*dG*dG*dT*dT*eT*eT*eT*eA*eG; antisense) [compound 547570]”, the “% inhibition” value [4] was 18%.

With “547653 (eA*eT*e[5mC]*eA*e[5mC]*dT*dG*dT*dA*d[5mC]*d[5mC]*dT*dA*dT*dA*eA*e[5mC]*eA*eG*eT; antisense) [compound 547653]” the “% inhibition” value [5] was 57%.

For “547472 (antisense eT*e[5mC]*eA*e[5mC]*e[5mC]*dT*dT*dT*d[5mC]*dT*d[5mC]*d[5mC]*dT*dT*d[5mC]*eG*eA*eG*eA*eA) [compound 547472]”, the “% inhibition” value [1] was 44% and the “% inhibition” value [2] was 42%.

In the case of “546233 (eA*eT*eG*eG*eT*dG*dT*dT*dT*dT*d[5mC]*dT*dT*dG*dA*eG*eG*eA*eG*eT; antisense) [compound 546233]”, the “% inhibition” value (Table 7, HepaRG cells, electroporation with 5,000 nM antisense oligonucleotide, approx. 24 hours, PKK mRNA by RT-PCR (RTS3454), relative to untreated control cells) is reported as 69%.
